According to PMC4775085 (ACS chemical neuroscience, 2015):
Converted amounts (≈) assume the structure as drawn. “And” between values parts separate entries of the source, which are not always exact repeats. Equal entries are not always repeated. Where two headings read alike, the source gives them in different places.

Columns and labels:
Aqueous solubility = conditions: PBS; for solubility: pH 7.4, aqueous buffer
mutant HSPB1 DRG neurons = test: Mitochondrial axonal transport in mutant HSPB1 DRG neurons; format: cell-based, mouse; conditions: DRG neurons from transgenic mutant HSPB1 mice, 100 nM overnight
HDAC6 = target: T1, HDAC6 (Homo sapiens, UniProt Q9UBN7); test: HDAC6 enzymatic inhibition assay; format: biochemical; conditions: for Selectivity HDAC1/HDAC6: ratio of HDAC1 and HDAC6 IC50 of Table 1 (fold); for IC50: 10-point enzymatic assay starting from 30 μM, 3-fold serial dilution
T1 sequence (Q9UBN7 1-1215): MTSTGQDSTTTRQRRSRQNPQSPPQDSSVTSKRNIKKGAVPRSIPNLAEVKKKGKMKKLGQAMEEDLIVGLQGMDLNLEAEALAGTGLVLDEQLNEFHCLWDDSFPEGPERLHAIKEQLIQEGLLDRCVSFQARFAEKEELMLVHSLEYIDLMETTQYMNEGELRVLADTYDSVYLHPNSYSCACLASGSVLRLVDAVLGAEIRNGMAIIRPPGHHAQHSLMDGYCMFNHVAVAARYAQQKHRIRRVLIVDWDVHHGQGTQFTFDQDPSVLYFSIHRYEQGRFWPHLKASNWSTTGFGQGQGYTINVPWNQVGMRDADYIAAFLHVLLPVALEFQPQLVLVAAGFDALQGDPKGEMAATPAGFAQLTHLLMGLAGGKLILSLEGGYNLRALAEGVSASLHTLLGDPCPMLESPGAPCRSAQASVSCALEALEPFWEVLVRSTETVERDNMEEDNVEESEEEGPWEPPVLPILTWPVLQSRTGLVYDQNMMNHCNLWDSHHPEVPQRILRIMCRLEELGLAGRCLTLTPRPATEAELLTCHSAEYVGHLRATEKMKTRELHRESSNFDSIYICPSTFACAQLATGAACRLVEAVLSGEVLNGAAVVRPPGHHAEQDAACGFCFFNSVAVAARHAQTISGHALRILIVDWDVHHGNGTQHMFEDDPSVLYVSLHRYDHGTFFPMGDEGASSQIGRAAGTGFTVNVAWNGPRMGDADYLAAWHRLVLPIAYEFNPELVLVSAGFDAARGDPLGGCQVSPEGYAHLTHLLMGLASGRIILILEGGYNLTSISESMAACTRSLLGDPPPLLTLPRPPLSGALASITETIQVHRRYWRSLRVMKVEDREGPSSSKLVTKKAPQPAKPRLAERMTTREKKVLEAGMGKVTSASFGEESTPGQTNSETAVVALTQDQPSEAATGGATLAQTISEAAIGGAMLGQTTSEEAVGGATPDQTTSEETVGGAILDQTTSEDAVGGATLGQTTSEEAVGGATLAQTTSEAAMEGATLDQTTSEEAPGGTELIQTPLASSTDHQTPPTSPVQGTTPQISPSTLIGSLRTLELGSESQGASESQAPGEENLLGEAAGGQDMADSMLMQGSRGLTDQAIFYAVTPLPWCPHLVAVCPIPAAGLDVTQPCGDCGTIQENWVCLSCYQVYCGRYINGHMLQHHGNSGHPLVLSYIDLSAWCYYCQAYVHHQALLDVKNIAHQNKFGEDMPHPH

Caco-2 permeability = format: in vitro ADME; conditions: human, Caco-2, pH 7.4
CYP 3A4-T = CYP 3A4-T (Homo sapiens, UniProt P08684); test: CYP inhibition 3A4-T; format: in vitro ADME
Sequence of CYP 3A4-T (P08684 whole entry): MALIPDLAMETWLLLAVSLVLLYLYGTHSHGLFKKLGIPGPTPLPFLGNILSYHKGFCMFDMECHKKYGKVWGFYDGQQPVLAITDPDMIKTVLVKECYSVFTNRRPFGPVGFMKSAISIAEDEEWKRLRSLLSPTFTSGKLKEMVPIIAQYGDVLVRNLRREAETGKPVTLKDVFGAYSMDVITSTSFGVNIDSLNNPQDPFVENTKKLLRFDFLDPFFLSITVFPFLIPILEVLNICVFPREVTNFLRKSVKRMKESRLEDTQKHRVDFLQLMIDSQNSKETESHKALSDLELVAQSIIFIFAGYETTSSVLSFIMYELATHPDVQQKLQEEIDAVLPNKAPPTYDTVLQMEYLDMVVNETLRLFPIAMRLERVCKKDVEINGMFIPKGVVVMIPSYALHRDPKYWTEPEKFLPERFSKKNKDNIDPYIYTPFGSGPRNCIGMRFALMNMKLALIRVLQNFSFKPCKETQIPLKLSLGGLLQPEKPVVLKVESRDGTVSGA

CYP 2D6 = CYP 2D6 (Homo sapiens, UniProt P10635); test: CYP inhibition 2D6; format: in vitro ADME
Sequence of CYP 2D6 (P10635 whole entry): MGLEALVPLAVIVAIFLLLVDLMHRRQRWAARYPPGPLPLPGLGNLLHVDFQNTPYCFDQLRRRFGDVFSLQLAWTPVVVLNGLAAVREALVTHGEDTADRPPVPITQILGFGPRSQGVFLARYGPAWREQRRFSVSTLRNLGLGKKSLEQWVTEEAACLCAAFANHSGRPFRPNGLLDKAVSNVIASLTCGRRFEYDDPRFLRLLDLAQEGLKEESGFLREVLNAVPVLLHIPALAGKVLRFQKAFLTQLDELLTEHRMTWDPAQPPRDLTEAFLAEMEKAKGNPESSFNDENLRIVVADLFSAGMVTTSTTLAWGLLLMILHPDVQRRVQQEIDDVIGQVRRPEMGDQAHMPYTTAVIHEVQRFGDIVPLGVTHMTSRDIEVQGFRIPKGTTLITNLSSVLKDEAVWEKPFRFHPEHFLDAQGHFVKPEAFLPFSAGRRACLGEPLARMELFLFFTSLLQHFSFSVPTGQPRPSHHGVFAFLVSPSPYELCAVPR

[1] = Liver microsomes stability, mouse; format: in vitro ADME
CYP 2C19 = CYP 2C19 (Homo sapiens, UniProt P33261); test: CYP inhibition 2C19
Sequence of CYP 2C19 (P33261 whole entry): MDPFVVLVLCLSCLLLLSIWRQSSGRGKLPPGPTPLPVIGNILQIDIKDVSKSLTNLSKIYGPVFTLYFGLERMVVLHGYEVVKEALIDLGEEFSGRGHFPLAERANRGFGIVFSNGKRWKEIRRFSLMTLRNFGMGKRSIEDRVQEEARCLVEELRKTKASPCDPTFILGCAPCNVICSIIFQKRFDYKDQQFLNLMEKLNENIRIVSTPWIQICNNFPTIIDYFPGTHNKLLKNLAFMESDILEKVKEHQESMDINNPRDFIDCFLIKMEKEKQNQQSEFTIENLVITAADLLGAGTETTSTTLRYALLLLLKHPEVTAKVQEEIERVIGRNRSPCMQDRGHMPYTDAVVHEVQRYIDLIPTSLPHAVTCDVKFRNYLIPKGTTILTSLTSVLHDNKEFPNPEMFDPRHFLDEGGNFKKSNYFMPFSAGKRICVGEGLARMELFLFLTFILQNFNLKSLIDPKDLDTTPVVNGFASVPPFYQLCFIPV

CYP 3A4-M = CYP 3A4-M (Homo sapiens, UniProt P08684); test: CYP inhibition 3A4-M; format: in vitro ADME
Sequence of CYP 3A4-M (P08684 whole entry): as the sequence (P08684 whole entry) above

CYP 2C9 = CYP 2C9 (Homo sapiens, UniProt P11712); test: CYP inhibition 2C9
Sequence of CYP 2C9 (P11712 whole entry): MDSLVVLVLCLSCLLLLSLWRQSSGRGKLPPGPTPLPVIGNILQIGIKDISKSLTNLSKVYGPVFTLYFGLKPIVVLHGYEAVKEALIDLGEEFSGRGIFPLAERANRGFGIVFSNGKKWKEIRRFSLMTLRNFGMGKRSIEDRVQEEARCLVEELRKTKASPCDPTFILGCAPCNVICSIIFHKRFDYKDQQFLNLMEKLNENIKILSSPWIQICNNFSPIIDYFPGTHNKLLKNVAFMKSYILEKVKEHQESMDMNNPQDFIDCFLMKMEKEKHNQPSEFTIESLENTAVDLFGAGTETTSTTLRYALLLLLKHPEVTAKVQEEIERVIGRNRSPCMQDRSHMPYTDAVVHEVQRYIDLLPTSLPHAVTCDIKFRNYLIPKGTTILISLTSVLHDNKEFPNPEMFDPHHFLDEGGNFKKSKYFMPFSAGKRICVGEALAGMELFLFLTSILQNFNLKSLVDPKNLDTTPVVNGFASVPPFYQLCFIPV

HDAC4 = HDAC4 (Homo sapiens, UniProt P56524); test: HDAC4 enzymatic inhibition assay
Sequence of HDAC4 (P56524 whole entry): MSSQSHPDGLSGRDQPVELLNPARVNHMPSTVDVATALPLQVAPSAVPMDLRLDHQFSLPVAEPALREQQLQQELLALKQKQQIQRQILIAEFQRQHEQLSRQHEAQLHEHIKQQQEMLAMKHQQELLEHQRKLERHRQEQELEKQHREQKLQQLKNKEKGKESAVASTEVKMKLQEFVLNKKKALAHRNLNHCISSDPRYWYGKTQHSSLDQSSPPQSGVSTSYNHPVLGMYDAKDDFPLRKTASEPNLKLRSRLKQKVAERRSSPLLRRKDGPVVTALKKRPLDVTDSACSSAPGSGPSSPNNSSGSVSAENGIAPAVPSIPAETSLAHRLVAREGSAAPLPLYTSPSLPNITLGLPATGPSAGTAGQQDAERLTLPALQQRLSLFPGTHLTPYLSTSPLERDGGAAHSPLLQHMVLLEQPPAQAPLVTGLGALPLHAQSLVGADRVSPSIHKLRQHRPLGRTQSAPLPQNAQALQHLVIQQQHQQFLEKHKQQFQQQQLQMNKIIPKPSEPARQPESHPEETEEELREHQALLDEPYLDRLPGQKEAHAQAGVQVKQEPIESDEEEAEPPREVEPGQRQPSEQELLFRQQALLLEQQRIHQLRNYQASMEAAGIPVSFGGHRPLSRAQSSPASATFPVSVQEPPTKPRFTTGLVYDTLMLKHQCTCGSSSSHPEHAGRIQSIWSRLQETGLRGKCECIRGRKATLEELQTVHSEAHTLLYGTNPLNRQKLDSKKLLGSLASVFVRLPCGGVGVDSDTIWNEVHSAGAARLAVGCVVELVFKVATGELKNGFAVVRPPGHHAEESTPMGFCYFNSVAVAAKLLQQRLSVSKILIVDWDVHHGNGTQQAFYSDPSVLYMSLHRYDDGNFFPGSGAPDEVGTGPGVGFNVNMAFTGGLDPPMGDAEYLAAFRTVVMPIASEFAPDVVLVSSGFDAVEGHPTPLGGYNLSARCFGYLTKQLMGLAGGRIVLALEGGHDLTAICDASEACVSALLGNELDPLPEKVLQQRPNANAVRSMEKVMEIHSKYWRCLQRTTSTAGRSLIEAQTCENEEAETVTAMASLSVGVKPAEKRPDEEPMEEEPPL

CYP 1A2 = target: T2, CYP 1A2 (Homo sapiens, UniProt P05177); test: CYP inhibition 1A2
T2 sequence (P05177 1-516): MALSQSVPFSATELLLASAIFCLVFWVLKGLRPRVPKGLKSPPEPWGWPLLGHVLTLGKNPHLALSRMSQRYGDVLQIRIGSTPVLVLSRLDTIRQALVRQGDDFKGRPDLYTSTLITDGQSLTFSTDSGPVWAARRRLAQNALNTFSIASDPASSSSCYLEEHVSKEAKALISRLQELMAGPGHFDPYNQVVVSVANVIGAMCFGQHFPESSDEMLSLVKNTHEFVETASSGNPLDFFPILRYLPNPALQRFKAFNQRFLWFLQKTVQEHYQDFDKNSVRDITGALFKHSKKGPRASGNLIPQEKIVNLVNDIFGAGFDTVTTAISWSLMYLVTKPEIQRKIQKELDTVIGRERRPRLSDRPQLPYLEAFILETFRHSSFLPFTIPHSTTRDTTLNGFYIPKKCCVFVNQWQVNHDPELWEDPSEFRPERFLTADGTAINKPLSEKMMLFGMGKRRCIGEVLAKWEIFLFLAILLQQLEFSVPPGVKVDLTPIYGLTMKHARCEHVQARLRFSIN

Plasma stability, mouse = format: in vitro ADME; conditions: 120 min
HDAC5 = HDAC5 (Homo sapiens, UniProt Q9UQL6); test: HDAC5 enzymatic inhibition assay
Sequence of HDAC5 (Q9UQL6 whole entry): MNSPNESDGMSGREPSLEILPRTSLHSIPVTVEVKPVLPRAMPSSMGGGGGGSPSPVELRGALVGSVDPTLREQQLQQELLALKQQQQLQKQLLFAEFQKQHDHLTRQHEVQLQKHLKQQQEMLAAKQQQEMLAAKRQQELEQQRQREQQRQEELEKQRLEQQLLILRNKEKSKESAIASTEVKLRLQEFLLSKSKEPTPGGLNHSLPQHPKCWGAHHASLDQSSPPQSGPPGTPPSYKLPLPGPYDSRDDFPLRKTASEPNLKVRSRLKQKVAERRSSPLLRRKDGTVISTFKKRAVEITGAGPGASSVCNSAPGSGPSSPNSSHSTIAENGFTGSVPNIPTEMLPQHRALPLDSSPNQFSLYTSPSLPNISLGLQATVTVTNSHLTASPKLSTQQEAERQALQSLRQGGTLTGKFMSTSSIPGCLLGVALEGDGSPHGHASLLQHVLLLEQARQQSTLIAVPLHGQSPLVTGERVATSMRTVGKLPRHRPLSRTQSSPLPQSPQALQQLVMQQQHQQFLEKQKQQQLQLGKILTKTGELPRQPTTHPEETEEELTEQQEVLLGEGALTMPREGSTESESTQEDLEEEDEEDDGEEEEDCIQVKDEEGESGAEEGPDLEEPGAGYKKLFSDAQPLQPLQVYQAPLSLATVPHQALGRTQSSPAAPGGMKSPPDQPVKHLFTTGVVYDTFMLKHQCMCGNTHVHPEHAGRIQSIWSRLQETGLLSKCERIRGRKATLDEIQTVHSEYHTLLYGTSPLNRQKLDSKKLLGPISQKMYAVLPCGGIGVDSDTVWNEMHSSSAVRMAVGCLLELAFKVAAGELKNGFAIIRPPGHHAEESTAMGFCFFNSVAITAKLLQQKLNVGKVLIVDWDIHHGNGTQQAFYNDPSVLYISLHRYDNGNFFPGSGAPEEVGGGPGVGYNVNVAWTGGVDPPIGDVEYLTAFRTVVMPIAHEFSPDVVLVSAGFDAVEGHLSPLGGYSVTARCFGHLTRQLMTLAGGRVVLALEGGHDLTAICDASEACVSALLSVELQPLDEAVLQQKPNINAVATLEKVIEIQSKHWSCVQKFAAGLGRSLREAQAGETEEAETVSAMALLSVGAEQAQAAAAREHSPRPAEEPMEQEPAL

[2] = Liver microsomes stability, human; format: in vitro ADME
[3] = Hepatocyte stability, mouse; format: in vitro ADME; conditions: hepatocytes
[4] = Intravenous and oral plasma pharmacokinetics in male CD1 mice; format: in vivo; conditions: CD1, mouse
HDAC8 = target: T3, HDAC8 (Homo sapiens, UniProt Q9BY41); test: HDAC8 enzymatic inhibition assay
T3 sequence (Q9BY41 1-377): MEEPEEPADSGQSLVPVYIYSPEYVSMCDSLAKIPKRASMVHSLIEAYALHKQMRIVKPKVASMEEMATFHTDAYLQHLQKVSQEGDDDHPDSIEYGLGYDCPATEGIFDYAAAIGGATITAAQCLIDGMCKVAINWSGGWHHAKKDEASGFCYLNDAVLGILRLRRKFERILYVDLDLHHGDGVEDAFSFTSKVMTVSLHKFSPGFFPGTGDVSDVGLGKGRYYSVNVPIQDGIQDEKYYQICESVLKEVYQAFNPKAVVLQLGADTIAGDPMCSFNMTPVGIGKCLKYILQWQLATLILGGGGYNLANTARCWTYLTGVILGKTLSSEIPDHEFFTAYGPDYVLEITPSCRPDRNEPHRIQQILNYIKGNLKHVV

Plasma stability, human = format: in vitro ADME; conditions: 120 min
[5] = Hepatocyte stability, human; format: in vitro ADME; conditions: hepatocytes
[6] = IC50 (nM) HDAC6, mean of two experiments ± standard deviation

Cc1nc2ccccc2n1Cc1ccc(C(=O)NO)cc1 [12a]
aqueous solubility (Aqueous solubility; pH 7.4): 70 µM (≈ 19.7 µg/mL) | mitochondrial axonal transport (number of moving mitochondria per 100 μm of neurite) (mutant HSPB1 DRG neurons): able to restore the movement of mitochondria | fold increase in HDAC6 inhibitory potency (HDAC6; compared to 8 (hydrogen to methyl)): 3 fold | Selectivity HDAC1/HDAC6 (HDAC6): 955 | IC50 (HDAC6; read-out: IC50 (nM) HDAC6, mean of two experiments ± standard deviation): 9 nM and 9.2 nM

CC(C)c1nc2ccccc2n1Cc1ccc(C(=O)NO)cc1 [12b, N-Hydroxy-4-[(2-isopropyl-1-benzimidazolyl)methyl]benzamide]
Selectivity HDAC1/HDAC6 (HDAC6): 589

CC(=O)NCCCc1nc2ccccc2n1Cc1ccc(C(=O)NO)cc1 [12d, 4-[[2-(3-Acetamidopropyl)-1-benzimidazolyl]methyl]-N-hydroxybenzamide]
Selectivity HDAC1/HDAC6 (HDAC6): 312

CN(C)CCc1nc2ccccc2n1Cc1ccc(C(=O)NO)cc1 [12e, 4-[[2-[2-(Dimethylamino)ethyl]-1-benzimidazolyl]methyl]-N-hydroxybenzamide]
Selectivity HDAC1/HDAC6 (HDAC6): 416

O=C(NO)c1ccc(CN2CCNc3ccccc32)cc1 [17a, 4-[[1,2,3,4-Tetrahydroquinoxalin-1-yl]methyl]-N-hydroxybenzamide]
IC50 (HDAC6; [6]): 3 nM

O=C(NO)c1ccc(CN2CCN(CC3CC3)c3ccccc32)cc1 [17b, 4-[[4-(Cyclopropylmethyl)-1,2,3,4-tetrahydroquinoxalin-1-yl]-methyl]-N-hydroxybenzamide]
IC50 (HDAC6; [6]): 39.3 ± 0.3 nM

O=C(NO)c1ccc(CN2CCSc3ccccc32)cc1 [17c, 4-[[2,3-Dihydro-4H-benzo[b][1,4]thiazin-4-yl]methyl]-N-hydroxybenzamide]
IC50 (HDAC6; [6]): 6 nM

CC(C)(C)OC(=O)N1CC(=O)N(Cc2ccc(C(=O)NO)cc2)c2ccccc21 [17e, tert-Butyl 4-[4-(Hydroxycarbamoyl)benzyl]-3-oxo-3,4-dihydroquinoxaline-1(2H)-carboxylate]
IC50 (HDAC6; [6]): 34 nM

O=C(NO)c1ccc(Cn2c(=O)cnc3ccccc32)cc1 [17f, N-Hydroxy-4-[(2-oxoquinoxalin-1(2H)-yl)methyl]benzamide]
IC50 (HDAC6; [6]): 1 nM

Cc1nc2ccccc2n1Cc1nc(C(=O)NO)co1 [23a, N-Hydroxy-2-[(2-methyl-1-benzimidazolyl)methyl]oxazole-4-carboxamide]
fold reduction of HDAC6 activity compared to 12a (HDAC6): > 400 fold

Cc1nc2ccccc2n1Cc1nc(C(=O)NO)cs1 [23b, N-Hydroxy-2-[(2-methyl-1-benzimidazolyl)methyl]thiazole-4-carboxamide]
IC50 (HDAC6; [6]): 8310 ± 905 nM | fold reduction of HDAC6 activity compared to 12a (HDAC6): > 900 fold

Cc1nc2ccccc2n1Cc1ccc(C(=O)NO)cn1 [23c, N-Hydroxy-6-[(2-methyl-1-benzimidazolyl)methyl]nicotinamide]
IC50 (HDAC6; [6]): 77 nM

Cc1nc2ccccc2n1Cc1ccc(C(=O)NO)cc1F [23d, 3-Fluoro-N-hydroxy-4-[(2-methyl-1-benzimidazolyl)methyl]-benzamide]
Papp A→B (Caco-2 permeability): 3.89 ×10⁻⁶ cm/s | Papp B→A (Caco-2 permeability): 13.2 ×10⁻⁶ cm/s | solubility (Aqueous solubility): 302 µM (≈ 90.4 µg/mL) | mitochondrial axonal transport (number of moving mitochondria per 100 μm of neurite) (mutant HSPB1 DRG neurons): able to restore the movement of mitochondria | IC50 (CYP 3A4-T): 36000 nM | IC50 (CYP 2D6): > 50000 nM | half-life [1]: 4.75 h | IC50 (CYP 2C19): > 50000 nM | IC50 (CYP 3A4-M): > 50000 nM | IC50 (CYP 2C9): > 50000 nM | IC50 (HDAC4): 470 nM | IC50 (CYP 1A2): > 50000 nM | plasma stability remaining percentage (Plasma stability, mouse): 87.9% | IC50 (HDAC5): 182 nM | half-life [2]: 32.4 h | half-life [3]: 0.667 h | AUC(0-inf) ([4]; iv, 3 mg/kg): 1480 ng·h/mL | Vd ([4]; iv, 3 mg/kg): 0.382 L/kg | clearance ([4]; iv, 3 mg/kg): 34 mL/min/kg | half-life ([4]; iv, 3 mg/kg): 0.851 h | AUC(0-inf) ([4]; po, 30 mg/kg): 3100 ± 84 ng·h/mL | Cmax ([4]; po, 30 mg/kg): 4370 ± 470 ng/mL | Tmax ([4]; po, 30 mg/kg): 0.25 h | IC50 (HDAC8): 176 nM | plasma stability remaining percentage (Plasma stability, human): 93.4% | half-life [5]: 24.8 h

O=C(NO)c1ccc(Cn2c(C(F)(F)F)nc3ccccc32)c(F)c1 [23e, 3-Fluoro-N-hydroxy-4-[(2-(trifluoromethyl)-1-benzimidazolyl)-methyl]benzamide]
IC50 (HDAC6; [6]): 16 nM | Selectivity HDAC1/HDAC6 (HDAC6): 1500

Cc1nc2cc(F)ccc2n1Cc1ccc(C(=O)NO)cc1 [30b, 4-[(5-Fluoro-2-methyl-1-benzimidazolyl)methyl]-N-hydroxybenzamide]
IC50 (HDAC6; [6]): 6 nM

CN1CCc2c(c3ccccc3n2Cc2ccc(C(=O)NO)cc2)C1 [tubastatin A, reference compound]
Papp A→B (Caco-2 permeability): 2 ×10⁻⁶ cm/s | Papp B→A (Caco-2 permeability): 19.7 ×10⁻⁶ cm/s | solubility (Aqueous solubility): 301 µM (≈ 101 µg/mL) | mitochondrial axonal transport (number of moving mitochondria per 100 μm of neurite) (mutant HSPB1 DRG neurons): able to restore the movement of mitochondria | IC50 (CYP 2D6): 16000 nM | half-life [1]: 5.05 h | IC50 (CYP 2C19): > 50000 nM | IC50 (CYP 2C9): > 50000 nM | IC50 (CYP 1A2): > 50000 nM | plasma stability remaining percentage (Plasma stability, mouse): 83.0% | half-life [2]: 25.3 h | half-life [3]: 0.5 h | clearance ([4]; iv, 3 mg/kg): 222 mL/min/kg | Tmax ([4]; po, 30 mg/kg): 0.25 h | plasma stability remaining percentage (Plasma stability, human): 96.4% | half-life [5]: 1.47 h
